Results taken from ChEMBL document CHEMBL1144958 (Bioorg Med Chem Lett, 2003).

Tests used:
HEK293 = assay: Binding affinity towards nicotinic acetylcholine receptor alpha7 - 5-hydroxytryptamine 3 receptor was determined in transfected HEK cells (alpha7) using [125I]-alpha-BgTx as radioligand; assay type: cell-based
[1] = target: Neuronal acetylcholine receptor; alpha4/beta2 (Rattus norvegicus, UniProt P09483+P12390); assay: Binding affinity towards alpha4-beta2 nicotinic receptor was determined in rat brain membrane using [3H]cytisine as radioligand; assay type: cell membranes
Neuronal acetylcholine receptor; alpha4/beta2, sequence (P09483 whole entry): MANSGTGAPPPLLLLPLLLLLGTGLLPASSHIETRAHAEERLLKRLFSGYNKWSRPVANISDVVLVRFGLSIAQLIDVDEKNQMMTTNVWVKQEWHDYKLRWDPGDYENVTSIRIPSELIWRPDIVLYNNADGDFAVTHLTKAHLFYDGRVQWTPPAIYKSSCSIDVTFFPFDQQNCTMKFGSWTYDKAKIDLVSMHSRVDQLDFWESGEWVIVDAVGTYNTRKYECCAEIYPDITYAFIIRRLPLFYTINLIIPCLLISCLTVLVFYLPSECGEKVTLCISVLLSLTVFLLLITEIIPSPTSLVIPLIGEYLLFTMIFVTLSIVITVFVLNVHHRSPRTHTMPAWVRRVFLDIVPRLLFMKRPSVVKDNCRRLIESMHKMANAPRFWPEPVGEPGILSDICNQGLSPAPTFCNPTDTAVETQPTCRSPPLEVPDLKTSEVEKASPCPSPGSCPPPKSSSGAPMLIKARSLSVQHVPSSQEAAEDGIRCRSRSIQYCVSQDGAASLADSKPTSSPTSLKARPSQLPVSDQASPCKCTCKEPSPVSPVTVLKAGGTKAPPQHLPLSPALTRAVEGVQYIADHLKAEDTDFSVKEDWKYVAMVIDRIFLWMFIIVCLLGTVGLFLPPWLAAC
Neuronal acetylcholine receptor; alpha4/beta2, sequence (P12390 whole entry): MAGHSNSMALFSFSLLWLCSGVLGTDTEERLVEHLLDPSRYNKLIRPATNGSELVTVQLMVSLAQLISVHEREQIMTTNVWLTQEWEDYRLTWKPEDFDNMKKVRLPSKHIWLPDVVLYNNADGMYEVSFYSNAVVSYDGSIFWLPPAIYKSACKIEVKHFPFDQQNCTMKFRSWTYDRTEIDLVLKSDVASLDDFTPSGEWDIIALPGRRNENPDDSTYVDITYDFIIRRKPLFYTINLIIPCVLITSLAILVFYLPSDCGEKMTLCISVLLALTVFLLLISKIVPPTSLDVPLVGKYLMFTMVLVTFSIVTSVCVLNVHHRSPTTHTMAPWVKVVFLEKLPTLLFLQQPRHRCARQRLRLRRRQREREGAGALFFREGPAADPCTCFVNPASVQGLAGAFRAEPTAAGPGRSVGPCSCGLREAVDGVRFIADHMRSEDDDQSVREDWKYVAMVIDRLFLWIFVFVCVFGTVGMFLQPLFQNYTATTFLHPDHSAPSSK

| SMILES | binding affinity (HEK293) | Ki [1] |
| --- | --- | --- |
| COC(=O)Nc1ccc(C2CC3CCC2N3)cn1 (configuration not stated) | > 1000 µM | 8100 nM |
| O=C(CCl)Nc1ccc(C2CC3CCC2N3)cn1 (configuration not stated) | 23 µM | 16.3 nM |
| Clc1ncc(C2CC3CCC2N3)cn1 (configuration not stated) | 0.76 µM | 0.31 nM |
| Clc1ccc(C2CC3CCC2N3)cn1 (configuration not stated) | 0.075 µM | – |
